Results as given in patent publication US7476741B2, “Substituted 4H-chromens, 2H-chromenes, chromans and analogs as activators of caspases and inducers of apoptosis and the use thereof” (Cytovia, Inc., priority 2002, dated 2009).

Columns and labels:
[1] = tested on: T-47D; assay: Caspase cascade activation assay (N-(Ac-DEVD)-N'-ethoxycarbonyl-R110 fluorogenic substrate) in T-47D cells; type: cell-based; conditions: T-47D human breast cancer cells, 24 h incubation; ratio of net RFU of compound to control
Procedure: (§1) Human breast cancer cell lines T-47D and ZR-75-1 were grown according to media component mixtures designated by American Type Culture Collection +10% FCS (Invitrogen Corporation), in a 5% CO2−95% humidity incubator at 37° C. T-47D and ZR-75-1 cells were maintained at a cell density between 30 and 80% confluency at a cell density of 0.1 to 0.6×10^6 cells/mL. Cells were harvested at 600×g and resuspended at 0.65×10^6 cells/mL into appropriate media +10% FCS. An aliquot of 45 μL of cells was added to a well of a 96-well microtiter plate containing 5 μL of a 10% DMSO in RPMI-1640 media solution containing 0.16 to 10 μM of 4-(3-bromo-4,5-dimethoxyphenyl)-3-cyano-4H-indolo[4,5-b]pyran (Example 1) or other test compound (0.016 to 1 μM final). An aliquot of 45 μL of cells was added to a well of a 96-well microtiter plate containing 5 μL of a 10% DMSO in RPMI-1640 media solution without test compound as the control sample. The samples were mixed by agitation and then incubated at 37° C. for 24 h in a 5% CO2-95% humidity incubator. After incubation, the samples were removed from the incubator and 50 μL of a solution containing 20 μM of N-(Ac-DEVD)-N′-ethoxycarbonyl-R110 (SEQ ID No.:1) fluorogenic substrate (Cytovia, Inc.; U.S. Pat. No. 6,335,429), 20% sucrose (Sigma), 20 mM DTT (Sigma), 200 mM NaCl (Sigma), 40 mM Na PIPES buffer pH 7.2 (Sigma), and 500 μg/mL lysolecithin (Calbiochem) was added. The samples were mixed by agitation and incubated at room temperature. Using a fluorescent plate reader (Model 1420 Wallac Instruments), an initial reading (T=0) was made approximately 1-2 min after addition of the substrate solution, employing excitation at 485 nm and emission at 530 nm, to determine the background fluorescence of the control sample. After the 3 h incubation, the samples were read for fluorescence as above (T=3 h).
(§2) The Relative Fluorescence Unit values (RFU) were used to calculate the sample readings as follows: RFU(T=3h)−Control RFU(T=0)=Net RFU(T=3h)
(§3) The activity of caspase cascade activation was determined by the ratio of the net RFU value for 4-(3-bromo-4,5-dimethoxyphenyl)-3-cyano-4H-indolo[4,5-b]pyran or other test compound to that of control samples. The EC50 (nM) was determined by a sigmoidal dose-response calculation (Prism 2.0, GraphPad Software Inc.).

[2] = tested on: ZR-75-1; assay: Caspase cascade activation assay (N-(Ac-DEVD)-N'-ethoxycarbonyl-R110 fluorogenic substrate) in ZR-75-1 cells; type: cell-based; conditions: ZR-75-1 human breast cancer cells, 24 h incubation; for EC50: sigmoidal dose-response, read-out: ZR-75-1 EC50 (nM) (potency)
Procedure: as §1, §2, §3

Row | Structure (SMILES) | EC50 [2] [nM] | T-47D Ratio (caspase activity) [1] | ZR-75-1 Ratio (caspase activity) ([2]; ratio of net RFU of compound to control)
1 | COc1ccc(C2CC(=O)Oc3c2cc(OC)c(OC)c3OC)cc1 (centres unmarked) | 2650 | 5.7 | 
2 | COc1cc(C2CC(O)Oc3cc(N(C)C)ccc32)cc(Br)c1OC (centres unmarked) [Example 15, 4-(3-Bromo-4,5-dimethoxyphenyl)-7-dimethylamino-2-hydroxy-chroman] | 15 | 14.6 | 
3 | OC1CC(c2cc(Cl)cc(Cl)c2)c2ccc3[nH]ccc3c2O1 (centres unmarked) | > 1000 |  | 
4 | COc1ccc(C2CC(=O)Oc3cc(OC)c(OC)c(OC)c32)cc1 (centres unmarked) | > 10000 |  | 
5 | COc1ccc2c(c1)OC(=O)C(C#N)C2c1cc(OC)c(OC)c(OC)c1 (centres unmarked) [Example 13, 3-Cyano-7-methoxy-2-oxo-4-(3,4,5-trimethoxyphenyl)-chroman] | 67 | 4.3 | 
6 | N#CC1=COc2ccccc2C1c1ccccc1 (centres unmarked) [Example 6, 3-Cyano-4-phenyl-4H-chromene] | 2940 | In-active | In-active
7 | COc1cc(C2=C(Cl)COc3cc(N(C)C)ccc32)cc(OC)c1OC [Example 10, 3-Chloro-7-dimethylamino-4-(3,4,5-trimethoxyphenyl)-2H-chromene] | 280 | 8.2 | 
8 | COc1ccc2c(c1)OC(OCCN)CC2c1cc(OC)c(OC)c(OC)c1 (centres unmarked) | > 1000 |  | 
9 | COc1cc(C2CC(OC)Oc3cc(N)ccc32)cc(Br)c1OC (centres unmarked) | > 1000 |  | 
10 | Cn1ccc2c3c(ccc21)C(c1cncc(Br)c1)C(C#N)=CO3 (centres unmarked) [Example 3, 4-(5-Bromo-pyridin-3-yl)-3-cyano-7-methyl-4H-indolo[4,5-b]pyran] | 3 | 5.1 | 
11 | COc1ccc(C2c3ccc(N(C)C)cc3OC(OCCCN)C2Br)cc1OC (centres unmarked) | > 10000 |  | 
12 | COc1cc(C2C(C#N)=COc3c2ccc2c3oc(=O)n2C)cc(Br)c1OC (centres unmarked) [Example 7] | 14 | 6.7 | 
13 | COc1cc(C2c3ccc4[nH]ccc4c3OC(=O)C2C#N)cc(Br)c1OC (centres unmarked) [Example 14, 4-(3-Bromo-4,5-dimethoxyphenyl)-3-cyano-2-oxo-pyrrolo[2,3-h]chroman] | 278 | 4.8 | 
14 | COc1cc(C2CC(OC(C)=O)Oc3c2ccc2c3ccn2C)cc(Br)c1OC (centres unmarked) [Example 20, 2-Acetoxy-4-(3-bromo-4,5-dimethoxyphenyl)-7-methyl-pyrrolo[2,3-h]chroman] | 3 | 4.7 | 
15 | COc1cc(C2C(C#N)=COc3c2ccc2c3ccn2C)cc(Br)c1OC (centres unmarked) [Example 4, 4-(3-Bromo-4,5-dimethoxyphenyl)-3-cyano-7-methyl-4H-indolo[4,5-b]pyran] | 2.2 | 5.9 | 
16 | CCn1ccc2c3c(ccc21)C(c1cc(Br)c(OC)c(OC)c1)C(C#N)=CO3 (centres unmarked) [Example 5, 4-(3-Bromo-4,5-dimethoxyphenyl)-3-cyano-7-ethyl-4H-indolo[4,5-b]pyran] | 18 | 3.6 | 
17 | COc1ccc2c(c1)OCC(C#N)C2c1cc(OC)c(OC)c(OC)c1 (centres unmarked) [Example 11, 3-Cyano-7-methoxy-4-(3,4,5-trimethoxyphenyl)-chroman] | 101 | 9.6 | 
18 | COc1cc(C2C(C#N)=COc3c2ccc2[nH]ccc32)cc(Br)c1OC (centres unmarked) [Example 1, 4-(3-Bromo-4,5-dimethoxyphenyl)-3-cyano-4H-indolo[4,5-b]pyran] | 32 | 7.3 | 
19 | OC1CC(c2cc(Cl)cc(Cl)c2)c2ccc3cnccc3c2O1 (centres unmarked) | > 1000 |  | 
20 | CC(=O)Nc1ccc2c(c1)OC(O)CC2c1cc(Cl)cc(Cl)c1 (centres unmarked) | > 10000 |  | 
21 | COc1cccc(C2=CC(C)(C)Oc3cc(OC)ccc32)c1 | > 10000 |  | 
22 | COc1cc(C2=CCOc3cc(N(C)C)ccc32)cc(OC)c1OC [Example 9, 7-Dimethylamino-4-(3,4,5-trimethoxyphenyl)-2H-chromene] | 177 | 7.8 | 
23 | COc1cccc(C2=C(Br)C(C)(C)Oc3cc(OC)ccc32)c1 | > 10000 |  | 
24 | COc1cc(C2CC(OC(C)=O)Oc3cc(N(C)C)ccc32)cc(Br)c1OC (centres unmarked) [Example 17, 2-Acetoxy-4-(3-bromo-4,5-dimethoxyphenyl)-7-dimethylamino-chroman] | 29 | 5.2 | 
25 | COc1cc(C2C(C#N)=COc3cc(N(C)C)ccc32)cc(Br)c1OC (centres unmarked) [Example 2, 4-(3-Bromo-4,5-dimethoxyphenyl)-3-cyano-7-dimethylamino-4H-chromene] | 30 | 5.5 | 
26 | COc1ccc2c(c1)OC=C(C#N)C2c1cc(OC)c(OC)c(OC)c1 (centres unmarked) [Example 8, 3-Cyano-7-methoxy-4-(3,4,5-trimethoxyphenyl)-4H-chromene] | 210 | 6.7 | 
27 | COc1cc(C2CCOc3cc(N(C)C)ccc32)cc(Br)c1OC (centres unmarked) | > 10000 |  | 
28 | COc1ccc(C2CC(=O)Oc3cc(OC)c(OC)c(OC)c32)cc1OC (centres unmarked) | > 1000 |  | 
29 | COC1CC(c2cc(Cl)cc(Cl)c2)c2ccc(N)cc2O1 (centres unmarked) | > 10000 | 1.2 | 

Further lines, with some results ahead:

Row | EC50 [2] [nM] | Structure (SMILES) | T-47D Ratio (caspase activity) [1] | ZR-75-1 Ratio (caspase activity) ([2]; ratio of net RFU of compound to control)
30 | 23 | COc1ccc2c(c1)OC(O)CC2c1cc(OC)c(OC)c(OC)c1 (centres unmarked) [Example 23, 7-Methoxy-2-hydroxy-4-(3,4,5-trimethoxyphenyl)-chroman] | 6.0 | 
31 | 7.8 | COc1cc(C2CC(O)Oc3c2ccc2c3ccn2C)cc(Br)c1OC (centres unmarked) [Example 18, 4-(3-Bromo-4,5-dimethoxyphenyl)-2-hydroxy-7-methyl-pyrrolo[2,3-h]chroman] | 6.0 | 
32 | 48 | COc1cc(C2CC(OC)Oc3c2ccc2c3ccn2C)cc(Br)c1OC (centres unmarked) [Example 19, 4-(3-Bromo-4,5-dimethoxyphenyl)-2-methoxy-7-methyl-pyrrolo[2,3-h]chroman] | 4.5 | 
33 | 48 | COc1cc(C2CCOc3c2ccc2c3ccn2C)cc(Br)c1OC (centres unmarked) [Example 22, 4-(3-Bromo-4,5-dimethoxyphenyl)-7-methyl-pyrrolo[2,3-h]chroman] | 6.5 | 
34 | 573 | COc1ccc2c(c1)OC(=O)CC2c1cc(OC)c(OC)c(OC)c1 (centres unmarked) [Example 31, 7-Methoxy-4-(3,4,5-trimethoxyphenyl)-chroman-2-one] | 1.3 | 
35 | 127 | COc1cc(C2CC(=O)Oc3c2ccc2c3ccn2C)cc(Br)c1OC (centres unmarked) [Example 21, 4-(3-Bromo-4,5-dimethoxyphenyl)-7-methyl-pyrrolo[2,3-h]chroman-2-one] | 6.2 | 
36 | 3080 | COc1ccc(C2CC(=O)Oc3c2cc(OC)c(OC)c3OC)cc1O (centres unmarked) [Example 32, 4-(3-Hydroxy-4-methoxyphenyl)-6,7,8-trimethoxy-chroman-2-one] | 4.4 | 
37 | 360 | COc1cc(C2CC(O)Oc3c2ccc2[nH]c(=O)[nH]c32)cc(Br)c1OC (centres unmarked) [Example 29, 4-(3-Bromo-4,5-dimethoxyphenyl)-7,9-dihydro-2-hydroxy-8-oxo-imidazolo[4,5-h]chroman] | 6.0 | 
38 | 275 | COc1cc(C2CC(OC)Oc3cc(N(C)C)ccc32)cc(Br)c1OC (centres unmarked) [Example 16, 4-(3-Bromo-4,5-dimethoxyphenyl)-7-dimethylamino-2-methoxy-chroman] | 6.8 | 
39 | 4 | COc1cc(C2CC(O)Oc3c2ccc2c3ccn2C)cc(OC)c1OC (centres unmarked) [Example 25, 2-Hydroxy-7-methyl-4-(3,4,5-trimethoxyphenyl)-pyrrolo[2,3-h]chroman] | 10.1 | 
40 | 344 | COc1cc(C2CC(O)Oc3c2ccc2cccnc32)cc(Br)c1OC (centres unmarked) [Example 28, 4-(3-Bromo-4,5-dimethoxyphenyl)-2-hydroxy-pyrido[3,2-h]chroman] | 6.5 | 
41 | > 1000 | COc1cc(C2CC(O)Oc3c2ccc2cnccc32)cc(Br)c1OC (centres unmarked) [Example 26, 4-(3-Bromo-4,5-dimethoxyphenyl)-2-hydroxy-pyrido[3,4-h]chroman] | 1.1 | 
42 | 379 | COc1cc(C2CC(O)Oc3c2ccc2cc[nH]c32)cc(Br)c1OC (centres unmarked) [Example 30, 4-(3-Bromo-4,5-dimethoxyphenyl)-2-hydroxy-pyrrolo[3,2-h]chroman] | 6.8 | 
